Test results as given in US9486507B2, “Pro-coagulant compounds and methods of use thereof” (priority 2011, dated 2016).
Several values for one entry are separate records, joined by “and”; a condition that tells them apart may be missing. Identical values can stand only once.

Legend:
Assay type in all cases: biochemical
[1] = molecular target: T1, FVIIa (Homo sapiens, UniProt P08709); experiment: Km/Kcat of FVIIa for the substrate FX (FXa generation assay); settings: presence vs absence of compound 5
T1 construct: The two-chain Factor VIIa is a polypeptide produced from FVII by hydrolysis of the Arg152-Ile153 peptide bond of FVII; purchased Haematologic Technologies
T1 sequence (P08709 61-212 limits assumed): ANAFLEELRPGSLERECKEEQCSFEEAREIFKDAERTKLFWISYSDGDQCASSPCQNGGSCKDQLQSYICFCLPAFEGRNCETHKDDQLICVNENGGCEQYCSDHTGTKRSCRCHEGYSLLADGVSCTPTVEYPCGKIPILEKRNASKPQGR
T1 sequence (P08709 213-466 limits assumed): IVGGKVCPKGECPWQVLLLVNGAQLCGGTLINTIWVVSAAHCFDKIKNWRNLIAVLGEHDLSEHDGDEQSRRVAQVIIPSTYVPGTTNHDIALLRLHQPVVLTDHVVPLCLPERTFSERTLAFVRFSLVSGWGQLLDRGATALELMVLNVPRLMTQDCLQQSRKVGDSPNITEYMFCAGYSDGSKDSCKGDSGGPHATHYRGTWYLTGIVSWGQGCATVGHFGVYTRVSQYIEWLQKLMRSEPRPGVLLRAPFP
Protocol: Similarly, in order to measure the catalytic activity of FVIIa, a FXa generation assay measuring the ability of the compounds of the present disclosure to enhance the catalytic activity of FVIIa was established. The difference between the two assays was that the final concentration of 10 nM hFIXa was replaced with 10 nM hFVIIa. The remaining reagents and assay procedures described above were unchanged.
To determine the Km and Kcat of FIXa or FVIIa for the substrate FX, the FXa generation assay described above was used with the following modifications. A single peptide concentration was tested (typically one that gave the maximal rate of FXa generation) and the concentration of all assay components was similar to that described above with the exception of FX. Reactions were set up with varying concentrations of FX ranging between 400 and 0.8 nM and the rates of FXa generation were determined for each peptide at the different FX concentrations tested as described above. For each peptide assayed, the data were fitted to the following equation that gives the Michaelis-Menten constant (Km) and the Vmax for FIXa or FVIIa: v=Vmax [FX]/Km+[FX], wherein v is the rate of FXa generation determined as described above. The catalytic constant (Kcat) was calculated by normalizing the Vmax to the enzyme concentration.

[2] = molecular target: T2, FIXa (Homo sapiens, UniProt P00740); experiment: Km/Kcat of FIXa for the substrate FX (FXa generation assay); parameters: purchased Haematologic Technologies
Protocol: To determine the Km and Kcat of FIXa or FVIIa for the substrate FX, the FXa generation assay described above was used with the following modifications. […] Reactions were set up with varying concentrations of FX ranging between 400 and 0.8 nM and the rates of FXa generation were determined for each peptide at the different FX concentrations tested as described above. […] The catalytic constant (Kcat) was calculated by normalizing the Vmax to the enzyme concentration.
FIXa was used at 10 nM, and FX was used at 10-1000 nM. The assay was performed in the presence of phospholipids (PL) and calcium chloride.

[3] = molecular target: T2, FIXa; experiment: Heparin accelerated FIXa-AT complex formation assay; parameters: purchased Haematologic Technologies; settings: for % FIXa-AT complex formation: with heparin
Protocol: Competition studies between the pro-coagulant peptides and heparin: compounds of the present disclosure were tested in a heparin competition assay in an effort to further map the peptide's binding site on FIXa. FIXa inactivation by antithrombin (AT) was assessed by gel electrophoresis in the presence of heparin and varying procoagulant peptide concentrations. The rate of FIXa-AT complex formation was quantified over a 15 minute time course. […] The samples were incubated at 37° C. in a water bath and 12.5 μL aliquots were removed at each time point (0.5, 2, 5, 10, 15 min) and immediately mixed with 12.5 μL SDS 2× non-reducing sample buffer. The samples were heated at 90° C. for 3 min and loaded onto a 4-20% BioRad gel (20 μL/lane). The gel was run at 300V for 25 min, and the bands were quantified using Quantity One software from BioRad.

[4] = tested on: canine FVIII-deficient plasma; experiment: ROTEM in canine FVIII-deficient plasma; settings: canine HemA plasma, lyophilized human platelets, 10 fM lipTF
[5] = tested on: purified recombinant human coagulation factors; experiment: Thrombin generation assay using purified hemostatic components
Text: Purified recombinant human coagulation factors V, XI, II, X, IX, VII, VIIa, recombinant tissue factor and antithrombin III (ATIII) were obtained from Haematologic Technologies (Essex Junction, Vt., USA). Lyophilized platelets were from Helena Laboratorires (Beaumont, Tex.); TFPI was from American Diagnostica.

[6] = tested on: FVIII deficient human plasma; experiment: Rotational thromboelastometry (ROTEM) in FVIII-deficient human plasma
Protocol: Compounds of the present disclosure were tested by rotational thromboelastometry to evaluate coagulation parameters such as clotting time (CT), α-angle, clot formation time (CFT), maximum clot firmness (MCF). Briefly, lyophilized and citrated FVIII deficient human plasma (Siemens) was reconstituted with 1 mL of distilled water, allowed to stand for 20 min at RT and mixed well before use. Alternatively, an aliquot of citrated (non-lyophilized) FVIII deficient human plasma (HRF, George King, Precision Biologics, or real-time donors) was thawed for 10 min in a 37° C. water bath and when needed centrifuged at 2800 g for 5 min at 25° C. FVIII deficient plasma was spiked with lyophilized platelets (Helena Laboratories, final concentration 0.5×10^8 cells/ml) and compounds, FVIII, or both compound and FVIII. Dilutions of compounds of the present disclosure and controls, such as FVIII, were prepared in PBS (—Ca, —Mg). Next, 300 μl of the spiked plasma was transferred to a ROTEM cup already containing 20 μl of StarTEM (concentrated calcium chloride solution) and 20 μl of lipidated TF (American Diagnostica, final concentration 10 fM) or Kaolin (Sigma-Aldrich, final concentration 0.4 μg/ml) and recording was initiated. The cups were maintained at 37° C. during the testing.

[7] = hFIXa 10 nM, FX 10-1000 nM, PL, CaCl2, compound 1 3 μM, compounds 3, 4, 5 1 μM, compound C 10 μM
[8] = FVIII-deficient plasma (containing platelets), 10 μM
[9] = FVIII-deficient plasma, compound 5 2.5 μM + FVIIa-Fc 10 IU/mL
[10] = FVIII-deficient plasma, compound 5 2.5 μM + FVIIa-Fc 20 IU/mL
[11] = human HemA plasma, 5 μM, anti-FVIII pab +
[12] = human HemA plasma, 5 μM, anti-FVIII pab −
[13] = human HemA plasma, 10 μM, anti-FVIII pab +
[14] = human HemA plasma, 10 μM, anti-FVIII pab −

T2 sequence (P00740 47-191 limits assumed): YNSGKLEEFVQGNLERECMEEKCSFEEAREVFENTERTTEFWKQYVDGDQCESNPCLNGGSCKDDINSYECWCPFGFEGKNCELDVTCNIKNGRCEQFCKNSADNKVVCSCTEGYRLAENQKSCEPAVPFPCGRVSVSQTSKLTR
T2 sequence (P00740 227-461 limits assumed): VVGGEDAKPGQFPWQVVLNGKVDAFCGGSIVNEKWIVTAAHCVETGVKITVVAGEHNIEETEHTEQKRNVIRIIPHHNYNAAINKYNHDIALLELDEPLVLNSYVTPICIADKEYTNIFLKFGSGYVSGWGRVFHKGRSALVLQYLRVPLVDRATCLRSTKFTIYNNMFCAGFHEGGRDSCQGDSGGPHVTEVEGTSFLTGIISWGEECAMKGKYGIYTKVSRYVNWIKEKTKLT

For rRAPGKLTCLASYCWLFWTGIA [Compound 5], the “Δ kcat FVIIa” value [1] was 2419, the Km [2, 7] was 0.011 ± 0.0023 µM and the kcat [2, 7] was 0.000298 s⁻¹. The “Δ kcat FIXa” value ([2]; presence vs absence of compound 5) was 199, the Δ kcat ([2]; relative to buffer (1.0), compound 1 3 μM, compounds 3, 4, 5 1 μM, compound C 10 μM) was 199 and the “inactivation of FIXa by AT” value ([3]; absence of heparin) was “unaffected”. The “heparin-catalyzed FIXa-AT complex formation” value ([3]; heparin 100 nM, compound 5 0.1, 1, 10 μM) was “inhibited the FIXa-AT complex formation in a concentration-dependent manner”, the “% FIXa-AT complex formation” value ([3]; Compound 5 0.1 μM, 0.5 min) was 57% and the “% FIXa-AT complex formation” value ([3]; Compound 5 0.1 μM, 2 min) was 72%. The “% FIXa-AT complex formation” value ([3]; Compound 5 0.1 μM, 5 min) was 82%, the “% FIXa-AT complex formation” value ([3]; Compound 5 0.1 μM, 10 min) was 82% and the “% FIXa-AT complex formation” value ([3]; Compound 5 0.1 μM, 15 min) was 83%. The “% FIXa-AT complex formation” value ([3]; Compound 5 1 μM, 0.5 min) was 30%, the “% FIXa-AT complex formation” value ([3]; Compound 5 1 μM, 2 min) was 45% and the “% FIXa-AT complex formation” value ([3]; Compound 5 1 μM, 5 min) was 55%. The “% FIXa-AT complex formation” value ([3]; Compound 5 1 μM, 10 min) was 70%, the “% FIXa-AT complex formation” value ([3]; Compound 5 1 μM, 15 min) was 74% and the “% FIXa-AT complex formation” value ([3]; Compound 5 10 μM, 0.5 min) was 18%. For the same substance, the “% FIXa-AT complex formation” value ([3]; Compound 5 10 μM, 2 min) was 28%, the “% FIXa-AT complex formation” value ([3]; Compound 5 10 μM, 5 min) was 41% and the “% FIXa-AT complex formation” value ([3]; Compound 5 10 μM, 10 min) was 54%. The “% FIXa-AT complex formation” value ([3]; Compound 5 10 μM, 15 min) was 62%, the “Clotting time” value ([4]; 0.625 μM) was 687 s and 539 s and the “α-angle, degrees” value ([4]; 0.625 μM) was 12 degrees. For the same substance, the “Clotting time” value ([4]; 2.5 μM) was 346 s and 356 s, the “α-angle, degrees” value ([4]; 2.5 μM) was 15; 15 degrees and the “Clotting time” value ([4]; 5 μM) was 295 s and 369 s. For the same substance, the “α-angle, degrees” value ([4]; 5 μM) was 29 degrees and 28 degrees, the “Clotting time” value ([4]; 10 μM) was 286 s and 294 s and the “α-angle, degrees” value ([4]; 10 μM) was 58 degrees and 57 degrees. For the same substance, the “thrombin generation, FXIa dependence” value ([5]; compound 5 1 μM, 0, 50% or 100% FXIa (FIG. 8)) was “dependent on the FXIa concentration”, the “thrombin generation, FIXa dependence” value ([5]; compound 5 1 μM, 1%, 10% or 100% (3.1 μg/mL) FIXa (FIG. 7)) was “dependent on the FIXa concentration” and the “thrombin generation without FIX/FIXa” value ([5]; compound 5 1 μM, FVII, FVIIa, TF, FV, FX, FII, ATIII, TFPI, platelets) was “enhanced thrombin generation in the absence of FIX/FIXa”. For the same substance, the “thrombin generation, dose dependence” value ([5]; compound 5 at 1 nM, 10 nM, 100 nM, 1 μM, 2 μM (FIG. 6)) was “enhances thrombin generation in a dose-dependent manner”, the thrombin generation ([5]; compounds 1 μM, FVIII 0.1 or 1 IU/mL (FIG. 5)) was “induce thrombin generation” and the “Clotting time” value [6, 8] was 277 s and 298 s. The “α-angle, degrees” value [6, 8] was 34 degrees and 27 degrees, the Clotting time [6, 9] was 303.5 s and the α-angle [6, 9] was 38.5 degrees. The Clotting time [6, 10] was 115 s, the α-angle [6, 10] was 63 degrees and the “calcium dependence of procoagulant effect (clotting time)” value ([6]; compound 5 2.5 and 5 μM, 0 to about 16 mM calcium) was “sensitive to the calcium concentration”. The “Clotting time” value [6, 11] was 197 s and 194 s, the “α-angle, degrees” value [6, 11] was 48 degrees and 53 degrees and the “Clotting time” value [6, 12] was 154 s and 164 s. For the same substance, the “α-angle, degrees” value [6, 12] was 51 degrees and 58 degrees, the “Clotting time” value [6, 13] was 108 s and 110 s and the “α-angle, degrees” value [6, 13] was 67 degrees and 69 degrees. The “Clotting time” value [6, 14] was 101 s and 105 s and the “α-angle, degrees” value [6, 14] was 70 degrees and 68 degrees.
